Literature values as cited in patent US8946410B2, “Automated radiosynthesis” (GE Healthcare Limited, priority 2009, dated 2015).

Target: GABAA receptor
Conditions: GABAA receptor affinity, related art

Ki: ~0.5 nM
Compound: CCOC(=O)c1ncn2c1CN(C)C(=O)c1cc([18F])ccc1-2 [[^18F]FMZ, [^18F]Flumazenil]
